{"source": "the NIST ThermoML archive (doi:10.1016/j.jct.2014.02.003)", "experiment": "molar enthalpy of vaporization or sublimation", "details": "Crystal, Knudsen effusion method coupled with mass spectrometer, from logarithm of peak intensity", "note": "Numbers after ± are expanded uncertainties."}
{"smiles": "N[C@@H](Cc1ccc(O)cc1)C(=O)O", "note": "[3-(p-hydroxyphenyl)-L-alanine]", "values": [{"measurement": "molar enthalpy", "setting": "471.15 K", "result": "47.8 ± 0.43", "unit": "kcal/mol"}]}
{"smiles": "N[C@@H](Cc1c[nH]c2ccccc12)C(=O)O", "note": "[L-tryptophan]", "values": [{"measurement": "molar enthalpy", "setting": "450.15 K", "result": "44.1 ± 0.55", "unit": "kcal/mol"}]}
{"smiles": "O=C(O)c1ccccc1", "note": "[benzoic acid]", "values": [{"measurement": "molar enthalpy", "setting": "308.21 K", "result": "21.7 ± 0.454", "unit": "kcal/mol"}]}
{"smiles": "N[C@@H](Cc1ccccc1)C(=O)O", "note": "[L-phenylalanine]", "values": [{"measurement": "molar enthalpy", "setting": "418.15 K", "result": "37.8 ± 0.478", "unit": "kcal/mol"}]}
